Reference: patent US20080039515A1, “Arylpyrazoles And Methods Of Using Same For Control Of Insect Pests That Bore Into Trees” (The Texas A&M University System, priority 2004, published 2008)
Read-outs that look alike come from different tables or passages of the source.

Test system: Ips engravers beetles
Format: in vivo
Procedure: Study Sites: Two 20-year-old, recently thinned loblolly pine plantations were selected in Texas. Trees in one plantation were injected for use in a bolt study (Trial 1). Trees in ½ acre section of the second plantation were injected as part of a single-tree protection study (Trial 2). A staging area also was set up in the second plantation where bolts from the first plantation were exposed to bark beetles and wood borers.
Population Monitoring: A clear panel of acetate (10 cm wide by 25 cm long) was attached to the center of each bolt after deployment of bolts or 2 m high on standing trees after deployment of pheromone baits to monitor arrival of bark beetles. The top surface of each panel was coated entirely with Stikem Special® trapping compound (Michel and Pelton, Emeryville, Calif.). The traps were left in place for two weeks.
After 1 (May 24), 3 (July 19) and 5 (September) months post-injection, 5 trees of each treatment were felled and two 1.5 m long bolts were removed from the 3 m and 8 m heights of the bole. Because southern pine beetle (SPB) populations were extremely low in east Texas during the study year, Ips engravers were used as alternative bark beetles for this study. The bolts were transported to a 20-year-old loblolly plantation that was recently thinned and contained fresh slash material. Each bolt was placed about 1 m apart on discarded, dry pine bolts to maximize surface area available for colonization as well as to discourage predation by ground and litter-inhabiting organisms. To facilitate timely bark beetle colonization, packets of bark beetle pheromones (racemic ipsdienol +lanerione combination, ipsenol or cis-verbenol; Phero Tech, Inc., Delta, BC, Canada) were attached separately to three 1 m stakes evenly spaced in the study area. Racemic ipsdienol and cis-verbenol were used with the second series of bolts deployed in July. The packets were removed after 2 weeks when signs of attacks (boring dust) were observed on most test bolts, signaling that naturally-produced pheromones were present.
Treatment Evaluation: Trial 1. The first and second series of bolts were retrieved 2.5 and 3 weeks, respectively, after deployment, after observing many cerambycid attacks on most of the bolts. In the laboratory, two 10×50 cm strips (total=1000 cm^2) of bark were removed from each bolt. Several measurements were made relating to construction of nuptial chambers and egg galleries and development of brood: • 1. Number of unsuccessful attacks—penetration to phloem, but no egg galleries. • 2. Number of successful attacks—construction of nuptial chamber and at least one egg gallery extending from it. • 3. Number and lengths of egg galleries with brood galleries radiating from them. • 4. Number and lengths of egg galleries without brood galleries. • 5. Cerambycid activity, estimated by overlaying a 100 cm^2 grid over a portion of each bark strip and counting the number of squares overlapping area where cerambycids had fed.
Treatment efficacy was determined by comparing Ips beetle attacks and egg gallery length and cerambycid feeding on treated and untreated bolts. The data were transformed by log10(x+1) to satisfy criteria for normality and homoscedasticity (Zar 1984) and analyzed by GLM and the Fishers Protected LSD test using the Statview statistical program.

[1] = 1 month post-injection (May), bolt height 3 m
[2] = 1 month post-injection (May), bolt height 8 m
[3] = 3 months post-injection (July), bolt height 3 m
[4] = 3 months post-injection (July), bolt height 8 m
[5] = 3 months post-injection, bolt height 3 m
[6] = 3 months post-injection, bolt height 8 m
[7] = 5 months post-injection (Sept.), bolt height 3 m
[8] = 5 months post-injection (Sept.), bolt height 8 m

`N#Cc1nn(-c2c(Cl)cc(C(F)(F)F)cc2Cl)c(N)c1[S+]([O-])C(F)(F)F` (stereo not drawn) [Fip, 5-amino-3-cyano-1-(2,6-dichloro-4-trifluoromethylphenyl)-4-trifluoromethylsulfinylpyrazole] was tested, and the “Length of Egg Galleries Total” value [1] was 135.0, the “Length of Egg Galleries With Brood” value [1] was 70.6 cm and the “Length of Egg Galleries With Brood % of Total” value [1] was 52.3%. The “Length of Egg Galleries Without Brood” value [1] was 64.4 cm, the “Length of Egg Galleries Without Brood % of Total” value [1] was 47.7% and the “Mean # of Ips caught/trap” value [1] was 4.0. For the same compound, the “Number of Egg Galleries Total” value [1] was 33.6, the “Number of Egg Galleries With Brood % of Total” value [1] was 29.8% and the “Number of Egg Galleries With Brood No.” value [1] was 10.0. For the same compound, the “Number of Egg Galleries Without Brood % of Total” value [1] was 70.2%, the “Number of Egg Galleries Without Brood No.” value [1] was 23.6 and the “Nuptial Chambers Total” value [1] was 21.0. For the same compound, the “Nuptial Chambers With Egg Galleries % of Total” value [1] was 51.4%, the “Nuptial Chambers With Egg Galleries No.” value [1] was 10.8 and the “Nuptial Chambers Without Egg Galleries No.” value [1] was 10.2. For the same compound, the “Length of Egg Galleries Total” value [2] was 332.8, the “Length of Egg Galleries With Brood” value [2] was 183.2 cm and the “Length of Egg Galleries With Brood % of Total” value [2] was 55.0%. The “Length of Egg Galleries Without Brood” value [2] was 149.6 cm, the “Length of Egg Galleries Without Brood % of Total” value [2] was 45.0% and the “Mean # of Ips caught/trap” value [2] was 3.6. The “Number of Egg Galleries Total” value [2] was 73.0, the “Number of Egg Galleries With Brood % of Total” value [2] was 36.7% and the “Number of Egg Galleries With Brood No.” value [2] was 26.8. For the same compound, the “Number of Egg Galleries Without Brood % of Total” value [2] was 63.3%, the “Number of Egg Galleries Without Brood No.” value [2] was 46.2 and the “Nuptial Chambers Total” value [2] was 25.8. For the same compound, the “Nuptial Chambers With Egg Galleries % of Total” value [2] was 89.9%, the “Nuptial Chambers With Egg Galleries No.” value [2] was 23.2 and the “Nuptial Chambers Without Egg Galleries % of Total” value [2] was 10.1%. The “Nuptial Chambers Without Egg Galleries No.” value [2] was 2.6, the “Mean # of Ips caught/trap” value [3] was 4.8 and the “Nuptial Chambers Total” value [3] was 12.6. The “Nuptial Chambers With Egg Galleries % of Total” value [3] was 22.2%, the “Nuptial Chambers With Egg Galleries No.” value [3] was 2.8 and the “Nuptial Chambers Without Egg Galleries No.” value [3] was 9.8. For the same compound, the “Mean # of Ips caught/trap” value [4] was 4.6, the “Nuptial Chambers Total” value [4] was 21.0 and the “Nuptial Chambers With Egg Galleries % of Total” value [4] was 8.6%. For the same compound, the “Nuptial Chambers With Egg Galleries No.” value [4] was 1.8, the “Nuptial Chambers Without Egg Galleries No.” value [4] was 19.2 and the “Length of Egg Galleries Total” value [5] was 19.4. The “Length of Egg Galleries With Brood” value [5] was 0.0 cm, the “Length of Egg Galleries With Brood % of Total” value [5] was 0.0% and the “Length of Egg Galleries Without Brood” value [5] was 19.4 cm. For the same compound, the “Length of Egg Galleries Without Brood % of Total” value [5] was 100.0%, the “Number of Egg Galleries Total” value [5] was 5.6 and the “Number of Egg Galleries With Brood % of Total” value [5] was 0.0%. For the same compound, the “Number of Egg Galleries With Brood No.” value [5] was 0.0, the “Number of Egg Galleries Without Brood % of Total” value [5] was 100.0% and the “Number of Egg Galleries Without Brood No.” value [5] was 5.6. The “Length of Egg Galleries Total” value [6] was 9.2, the “Length of Egg Galleries With Brood” value [6] was 1.0 cm and the “Length of Egg Galleries With Brood % of Total” value [6] was 10.9%. For the same compound, the “Length of Egg Galleries Without Brood” value [6] was 8.2 cm, the “Length of Egg Galleries Without Brood % of Total” value [6] was 89.1% and the “Number of Egg Galleries Total” value [6] was 3.0. For the same compound, the “Number of Egg Galleries With Brood % of Total” value [6] was 6.7%, the “Number of Egg Galleries With Brood No.” value [6] was 0.2 and the “Number of Egg Galleries Without Brood % of Total” value [6] was 93.3%. The “Number of Egg Galleries Without Brood No.” value [6] was 2.8, the “Length of Egg Galleries Total” value [7] was 5.8 and the “Length of Egg Galleries With Brood” value [7] was 3.4 cm. For the same compound, the “Length of Egg Galleries With Brood % of Total” value [7] was 58.6%, the “Length of Egg Galleries Without Brood” value [7] was 2.4 cm and the “Length of Egg Galleries Without Brood % of Total” value [7] was 41.4%. The “Mean # of Ips caught/trap” value [7] was 1.2, the “Number of Egg Galleries Total” value [7] was 1.0 and the “Number of Egg Galleries With Brood % of Total” value [7] was 40.0%. For the same compound, the “Number of Egg Galleries With Brood No.” value [7] was 0.4, the “Number of Egg Galleries Without Brood % of Total” value [7] was 60.0% and the “Number of Egg Galleries Without Brood No.” value [7] was 0.6. For the same compound, the “Nuptial Chambers Total” value [7] was 8.0, the “Nuptial Chambers With Egg Galleries % of Total” value [7] was 7.5% and the “Nuptial Chambers With Egg Galleries No.” value [7] was 0.6. For the same compound, the “Nuptial Chambers Without Egg Galleries % of Total” value [7] was 92.5%, the “Nuptial Chambers Without Egg Galleries No.” value [7] was 7.4 and the “Length of Egg Galleries Total” value [8] was 15.2. For the same compound, the “Length of Egg Galleries With Brood” value [8] was 13.0 cm, the “Length of Egg Galleries With Brood % of Total” value [8] was 85.5% and the “Length of Egg Galleries Without Brood” value [8] was 2.2 cm. For the same compound, the “Length of Egg Galleries Without Brood % of Total” value [8] was 14.5%, the “Mean # of Ips caught/trap” value [8] was 0.8 and the “Number of Egg Galleries Total” value [8] was 2.0. The “Number of Egg Galleries With Brood % of Total” value [8] was 60.0%, the “Number of Egg Galleries With Brood No.” value [8] was 1.2 and the “Number of Egg Galleries Without Brood % of Total” value [8] was 40.0%. For the same compound, the “Number of Egg Galleries Without Brood No.” value [8] was 0.8, the “Nuptial Chambers Total” value [8] was 6.6 and the “Nuptial Chambers With Egg Galleries % of Total” value [8] was 18.2%. For the same compound, the “Nuptial Chambers With Egg Galleries No.” value [8] was 1.2, the “Nuptial Chambers Without Egg Galleries % of Total” value [8] was 81.8% and the “Nuptial Chambers Without Egg Galleries No.” value [8] was 5.4.
